Counter-ions that a name gives are not always drawn.
What follows are compounds tested against Beta-2-microglobulin (Homo sapiens, UniProt P61769) (assay: Fluorescence Assay). Conditions: pH 7.4; 37 °C.
Description: Inhibition of wild type beta-m fibrillogenesis tetracycline congeners and was follow by thioflavin fluorescence assay.

Sequence of Beta-2-microglobulin (P61769 whole entry): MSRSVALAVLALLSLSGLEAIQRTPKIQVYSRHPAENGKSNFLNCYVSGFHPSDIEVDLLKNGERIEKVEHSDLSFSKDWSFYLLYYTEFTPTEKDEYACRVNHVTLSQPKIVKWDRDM

Compound	IC50
CN(C)[C@@H]1C(=O)C(C(=O)NCN2CCCC2)C(=O)[C@@]2(O)C(=O)C3C(=O)c4c(O)cccc4[C@@](C)(O)[C@H]3C[C@@H]12 (some centres not stated) [Rolitetracycline]	136 µM
Cc1c2c(c(O)c3c(O)ccc(Cl)c13)C(=O)[C@]1(O)C(=O)C(C(N)=O)C(=O)[C@@H](N(C)C)[C@@H]1C2 (some centres not stated) [Anhydrochlortetracycline]	136 µM
C[C@H]1c2cccc(O)c2C(=O)C2C(=O)[C@]3(O)C(=O)C(C(N)=O)C(=O)[C@@H](N(C)C)[C@@H]3[C@@H](O)[C@@H]21 (some centres not stated)	47 µM
C=C1c2c(Cl)ccc(O)c2C(=O)C2C(=O)[C@]3(O)C(=O)C(C(N)=O)C(=O)[C@@H](N(C)C)[C@@H]3[C@@H](O)[C@H]12 (some centres not stated) [Meclocycline]	98 µM
C=C1c2cccc(O)c2C(=O)C2C(=O)[C@]3(O)C(=O)C(C(N)=O)C(=O)[C@@H](N(C)C)[C@@H]3[C@@H](O)[C@H]12 (stereo partly drawn) [(4S,4aR,5S,5aS,12aS)-4-(dimethylamino)-5,10,12a-trihydroxy-1,3,11,12-tetraketo-6-methylene-4a,5,5a,11a-tetrahydro-4H-tetracene-2-carboxamide;hydrochloride]	69 µM
CN(C)[C@@H]1C(=O)C(C(N)=O)C(=O)[C@@]2(O)C(=O)C3C(=O)c4c(O)cccc4[C@@](C)(O)[C@H]3[C@H](O)[C@@H]12 (stereo partly drawn) [(2E,4S,4aR,5S,5aR,6S,12aS)-2-[azanyl(oxidanyl)methylidene]-4-(dimethylamino)-6-methyl-5,6,10,11,12a-pentakis(oxidanyl)-4,4a,5,5a-tetrahydrotetracene-1,3,12-trione]	63 µM
CN(C)[C@H]1C(=O)C(C(N)=O)C(=O)[C@@]2(O)C(=O)C3C(=O)c4c(O)cccc4[C@@](C)(O)C3C(O)C12 (stereo partly drawn) [4-epi-oxytetracycline]	49 µM

— BindingDB's records for doi:10.1074/jbc.M110.178376 (University of Pavia, 2011)
